Source: PubChem BioAssay (NCI)
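Compound exposure: 48 hours, 5 concentrations, 96-well plates. The concentration for full growth arrest is given as TGI.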

Assays:
Test in all cases: growth of human tumour cells (NCI), 48 h
[1] = system: MALME-3M melanoma
[2] = system: OVCAR-4 ovarian
[3] = system: NCI-H23 lung
[4] = system: NCI-H226 lung
[5] = system: SNB-75 CNS
[6] = system: UACC-257 melanoma
[7] = system: UACC-62 melanoma
[8] = system: A549 NSCLC
[9] = system: MDA-MB-231 breast
[10] = system: CAKI-1 renal
[11] = system: U251 CNS
[12] = system: 786-0 renal
[13] = system: OVCAR-3 ovarian
[14] = system: MCF7 breast
[15] = system: SK-OV-3 ovarian
[16] = system: PC-3 prostate
[17] = system: SN12C renal
[18] = system: HCC-2998 colon

| SMILES | TGI [1] [µM] | TGI [2] [µM] | TGI [3] [µM] | TGI [4] [µM] | TGI [5] [µM] | TGI [6] [µM] | TGI [7] [µM] | TGI [8] [µM] | TGI [9] [µM] | TGI [10] [µM] | TGI [11] [µM] | TGI [12] [µM] | TGI [13] [µM] | TGI [14] [µM] | TGI [15] [µM] | TGI [16] [µM] | TGI [17] [µM] | TGI [18] [µM] |
| --- | --- | --- | --- | --- | --- | --- | --- | --- | --- | --- | --- | --- | --- | --- | --- | --- | --- | --- |
| COc1ccc(-c2c(N)n(-c3nc4ccccc4s3)c(=O)c3cc([N+](=O)[O-])ccc23)cc1 | 93.7 | 68.4 | 45.2 | > 100 | 24.7 | > 100 | > 100 | 23.3 | 48.7 | 48.5 | 35.2 | 16.2 | 35.4 | > 100 | 33 | > 100 |  |  |
| O=C(NCCCCCCCCNC(=O)c1cc(-c2ccccc2)nc2ccccc12)c1cc(-c2ccccc2)nc2ccccc12 | > 100 | > 100 | > 100 | > 100 | > 100 | > 100 | > 100 | > 100 | > 100 | > 100 | > 100 | > 100 | > 100 | > 100 | > 100 | > 100 | > 100 |  |
| CN(C(=O)Cc1cc(Cl)c(Cl)cc1N=C=S)[C@H]1CCCC[C@@H]1N1CCCC1 | 31.8 | 26.3 | 30.5 |  | 27.9 | 28 | 30.3 | 30.6 | 28.6 | 29.2 | 28.2 | 25.5 | 29.6 | 30.1 | 32.3 | 26.3 | 30.3 |  |
| Cc1c(/C=N/NC(=S)Nc2ccccc2Cl)c(=O)n(-c2ccccc2)n1C | 79.9 | > 100 |  | > 100 | 54.6 | > 100 | > 100 | > 100 | 35.7 | 81.3 | > 100 | 50 | > 100 | > 100 | 82.5 | > 100 | > 100 |  |
| COC(=O)C1CCC(=O)N1CN(C(C)=O)c1ccccc1 (stereo unspecified) | > 100 | > 100 | > 100 | > 100 | > 100 | > 100 | > 100 | > 100 | > 100 | > 100 | > 100 | > 100 | > 100 | > 100 | > 100 | > 100 | > 100 |  |
| O=C(CN1CCNCCN(CC(=O)N2CCCCC2)CCNCC1)N1CCCCC1 | > 100 | > 100 |  | > 100 | > 100 | > 100 | > 100 | > 100 | > 100 | > 100 | > 100 | > 100 | > 100 | > 100 | > 100 | > 100 | > 100 |  |
| C1=NCCNCCN=Cc2ccc(cc2)OCc2cccc(n2)COc2ccc1cc2 | > 100 | > 100 | > 100 | > 100 | > 100 | > 100 | > 100 | > 100 | > 100 | > 100 | > 100 | > 100 | > 100 | > 100 | > 100 | > 100 | > 100 |  |
| CC1CCCc2c(C#N)c(N)nc(-c3ccc(Cl)cc3)c21 (stereo unspecified) | 85.1 |  | 93.7 | 43.3 | 81.6 | 79.9 | 38.2 |  | 81.8 | > 100 | > 100 | 38.2 | 44.4 | 84.5 | > 100 | 42.9 | 38.2 |  |
| CSc1nc(N)c(NC2OC(CO)C(O)C2O)c(=O)[nH]1 (stereo unspecified) | > 100 | > 100 |  | > 100 | > 100 | > 100 | > 100 | > 100 | > 100 | > 100 | > 100 | > 100 | > 100 | > 100 | > 100 | > 100 | > 100 |  |
| NC(N)=N/N=C/c1c(-c2ccccc2)nc2n1ccc1nc(-c3ccccc3)c(/C=N/N=C(N)N)n12 | 84 | > 100 | > 100 | > 100 | > 100 | 81.8 | > 100 | > 100 | > 100 | > 100 | > 100 | > 100 | > 100 | > 100 | > 100 | > 100 | > 100 |  |
| CC1C(c2ccccc2)OP(=O)(OC(C#N)c2ccccc2)N1C (stereo unspecified) | > 100 |  | > 100 |  | > 100 | > 100 | > 100 | > 100 | > 100 | > 100 | > 100 | > 100 | > 100 | > 100 | > 100 | > 100 | > 100 | > 100 |
| O=C(c1ccccc1)c1ccc(COc2ccc(C(c3c(O)c4ccccc4oc3=O)c3c(O)c4ccccc4oc3=O)cc2)cc1 |  | 73 | 37.6 | 31 | 32.7 | 38.7 | 30 | 65.2 | > 100 | 45 | > 100 | 61.5 | 34.5 | 67.5 | 35.4 | 34.9 | > 100 | 33.5 |
